Measured values reported in US20140335474A1, “FLOSS DEVICE, A METHOD OF FORMING THE FLOSS DEVICE AND A METHOD OF USING THE FLOSS DEVICE” (priority 2008, published 2014).

Test system: E. Coli (strain DH5α)
Assay: Testing of antimicrobial RXPIX: bacterial viability by turbidity of LB Broth
Assay type: cell-based
Conditions: 15 minutes fluid exchange at room temperature, then 2 ml LB Broth, 20 hours at 37° C., three replicates
Experimental: For each sample three replicate experiments were preformed. Briefly, a drop of the bacterium E. Coli (strain DH5α) was mixed with a small amount of a medium (Luria-Bertani Broth, or LB Broth) and allowed to exchange fluid with the floss device 10, which is named “RXPIX” for identification purposes in the following tests, for 15 minutes. After this period of time, 2 ml of LB Broth was added to each test tube and the bacteria were allowed to grow for 20 hours at 37° C. Observing the turbidity of the broth at this time assessed bacterial viability. Bacterial viability was also assessed analytically by measuring the absorbance of visible light (600 nm).
B. On Day 2, 1 micro liter of E. Coli cells was transferred to each 12×75 mm round bottom test tube for antimicrobial testing. In addition, 5 micro liters of fresh LB Broth were added to each test tube to allow for fluid exchange. […]
D. After 20 hours of incubation, bacterial viability was assessed. […]
E. To further characterize bacterial growth, the absorbance of 600 nm visible light was used to analytically measure turbidity. The broth from each sample was measured with a spectrophotometer equipped with a lamp emitting visible light.

CCO [70% ethanol, ethanol]
bacterial growth (turbidity of the LB Broth): no bacterial growth | bacterial growth (turbidity of the LB Broth) (listed as 70% ethyl alcohol): not showing bacterial growth
